Compound	melting point
[C-]#[N+]CS(=O)(=O)c1ccccc1 [compound 3a, ((Isocyanomethyl)sulfonyl)benzene]	89 to 90 °C
[C-]#[N+]CS(=O)(=O)c1ccc(C)cc1 [compound 3b, 1-((isocyanomethyl)sulfonyl)-4-methylbenzene]	112 to 113 °C
[C-]#[N+]CS(=O)(=O)c1ccc2ccccc2c1 [compound 3d, 2-((isocyanomethyl)sulfonyl)naphthalene]	104 to 105 °C
[C-]#[N+]CS(=O)(=O)c1ccc(F)cc1 [compound 3e, 1-fluoro-4-((isocyanomethyl)sulfonyl)benzene]	63 °C
[C-]#[N+]CS(=O)(=O)c1ccc(Cl)cc1 [compound 3f, 1-Chloro-4-((isocyanomethyl)sulfonyl)benzene]	109 to 110 °C (dec.)
[C-]#[N+]CS(=O)(=O)c1cc(Cl)cc(Cl)c1 [compound 3h, 1,3-dichloro-5-((isocyanomethyl)sulfonyl)benzene]	82 to 83 °C
[C-]#[N+]CS(=O)(=O)c1ccc(OC)c(OC)c1 [compound 3k, 4-((isocyanomethyl)sulfonyl)-1,2-dimethoxybenzene]	101 to 102 °C
[C-]#[N+]CS(=O)(=O)c1c(OC)cccc1OC [compound 3p, 2-((Isocyanomethyl)sulfonyl)-1,3-dimethoxybenzene]	90 to 91 °C
